We go through 16 molecules from US20250179032A1, “HETEROCYCLIC INHIBITORS OF GLUT9 FOR TREATMENT OF DISEASE” (HORIZON THERAPEUTICS IRELAND DAC, priority 2022, published 2025).

In general, IC50 refers to the concentration that inhibits the measured activity by half.

For the test, the target named is T1, H. sapiens SLC2A9 variant 2 (GLUT9B) (Homo sapiens, UniProt Q9NRM0).
T1 sequence (Q9NRM0 1-511 isoform Q9NRM0-2): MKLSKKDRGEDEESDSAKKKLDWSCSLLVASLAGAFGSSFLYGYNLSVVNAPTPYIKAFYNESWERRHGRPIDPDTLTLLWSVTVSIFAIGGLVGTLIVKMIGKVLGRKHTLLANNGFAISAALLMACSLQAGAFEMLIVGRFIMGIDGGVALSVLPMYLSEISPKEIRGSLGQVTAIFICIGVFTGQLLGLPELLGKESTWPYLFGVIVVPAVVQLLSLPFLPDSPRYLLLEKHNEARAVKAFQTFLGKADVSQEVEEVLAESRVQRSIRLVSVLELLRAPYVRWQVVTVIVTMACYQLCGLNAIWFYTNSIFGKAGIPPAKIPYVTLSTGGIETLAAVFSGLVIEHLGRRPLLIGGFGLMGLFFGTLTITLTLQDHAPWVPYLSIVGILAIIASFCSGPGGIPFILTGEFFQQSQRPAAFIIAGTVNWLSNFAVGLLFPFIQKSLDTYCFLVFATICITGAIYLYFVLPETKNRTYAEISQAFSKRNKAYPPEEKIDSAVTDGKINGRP
The test can be described thus: GLUT9 functional assay: uric acid uptake in HEK293T cells, allantoin formation by MS/MS as proxy of GLUT9B inhibition. Type of test: cell-based. The settings on record: 15 minute assay; HEK293T cells stably expressing GLUT9B and transiently A. oryzae uricase; uric acid 0.3 mM, 37° C.; read-out: 15 min IC50. The procedure: Uric acid stocks (9 mM, Millipore-Sigma, U0881) were generated in 125 mM choline chloride (Millipore-Sigma, C7017) and the concentration was determined at 293 nm using a molar extinction coefficient of 9600 M- ^1 cm- ^1) after collecting the absorbance spectra from 220-350 nm. Allantoin stocks (12 mM Toronto Research Chemicals, A540500) were generated in LCMS grade water (Thermo Scientific, 51140). The concentration of allantoin was determined by qNMR (Michigan State University). HEK293T cells were purchased from ATCC (HEK 293T/17 SF). Hanks buffered saline salts (HBSS) was purchased from Millipore-Sigma (H6648-1L).
SLC2A9 variant 2 was assayed in sodium gluconate buffer was composed of 125 mM sodium gluconate (TCI Chemicals, G0041-500G), 4.8 mM potassium gluconate (TCI Chemicals, G0040-500G), 1.2 mM calcium gluconate (TCI Chemicals, G0037-500G), 1.2 mM potassium phosphate (pH 7.4, Millipore-Sigma, 17835), 1.2 mM MgSO4, Millipore-Sigma, M2773-500G), 25 mM HEPES pH 7.3, (Millipore-Sigma, 54457). The final pH of the buffer was 7.4. Urate 1 was assayed in the same buffer save the pH was made to be 5.5 using 25 mM MES (pH 5.5) buffer vs 25 mM HEPES (pH 7.3) buffer.
Human untagged clone for (untagged)-human solute carrier family 2 member 9 (SLC2A9), transcript variant (SLC2A9/NM_001001290, FIG. 1 and FIG. 2; SEQ ID NOS: 3 and 4) was purchased from Origene (Cat #SC319239). SLC2A9 variant 2 (GLUT9B) gene was amplified by PCR using the following primer to allow for the introduction of EcoR1 and Not1 sites using the primers below.
HEK293T clonal stable cell lines containing the SLC2A9 variant 2 construct in the bicistronic pIRESpuro vector were generated using Viafect™ (Promega E4981) as per the manufactures instructions and puromycin selection (5 μg×mL^−1).
Uric acid uptake was measured in HEK293T cells stably expressing H. sapiens SLC2A9 variant 2 (GLUT9B) and transiently expressing A. oryzae uricase. Thus, decreased allantoin formation was used as a proxy of GLUT9B inhibition. Briefly, clonal cells were plated (53,000 cells/cm^2) in DMEM with 10% FBS. Twenty-four hours later, A. oryzae uricase was transfected, and assay conducted 3 days later across a 12-point curve in buffer (in mM: 125 sodium gluconate, 4.8 potassium gluconate, 1.2 calcium gluconate, 1.2 potassium phosphate, 1.2 magnesium sulfate4, 25 HEPES; pH 7.4) with uric acid at the GLUT9B Km (0.3 mM) for 15 min or for 60 min, at 37° C. Following wash (Hanks, 37° C.), plates were sealed, incubated (5 min, RT) and cells freeze-thawed prior to lysing in water and shaking (30 min RT). Lysates were filtered through PVDF and subjected to MSMS using a 10 mM ammonium acetate-based mobile phase on a porous graphitic carbon column. Allantoin was detected in positive ion mode. Desired analyte concentrations were quantitated by integrating the area under the curve followed by a log-logistic regression model and data compared to a standard curve prepared in a matching HEK293T biological matrix.
Mass spectrometry measurement of allantoin was completed using an Agilent RapidFire 300 coupled to a Sciex API 4000 mass spectrometer. The stationary phase was an Agilent cartridge D (hypercarb). Mobile phase A was 10 mM ammonium acetate. Mobile phase B was 5 mM ammonium acetate, 25% acetonitrile, 25% acetone. Allantoin was detected in positive ion mode with the following compound ID settings: Q1 159, Q3 115.8, DP 57, CE 12.5 Dwell 100 ms. The source settings were CAD 10, CUR 20, GS1 50, GS250 IS/NC: 5000, TEM 650, EP 10, CXP 10 where Q1 and Q3 resolution were set to low.
Data was quantitated using Area under the curve integration was performed with the RapidFire™ Integrator (Agilent Technologies) for the desired analytes. Quantitation was completed using in a using a log-logistic regression model using allantoin in matching HEK293T biological matrix.
With `CCCCc1cnc(-c2ccc(OC)cc2)c(-c2cnc(C(=O)O)nc2)c1` [Compound 23, 5-(5-butyl-2-(4-methoxyphenyl)pyridin-3-yl)pyrimidine-2-carboxylic acid], the IC50 was over 2 µM. The same measure for `CCCCc1cnc(-c2ccc(OC)cc2)c(-c2ccc(C(=O)O)cn2)c1` [Compound 24, 5′-butyl-2′-(4-methoxyphenyl)-[2,3′-bipyridine]-5-carboxylic acid]: over 2 µM. For `CCCCc1cnc(-c2ccc(OC)cc2)c(-c2ncc(C(=O)O)s2)c1` [Compound 25, 2-(5-butyl-2-(4-methoxyphenyl)pyridin-3-yl)thiazole-5-carboxylic acid], the IC50 was over 2 µM. The same measure for `CCCCc1cnc(-c2ccc(OC)cc2)c(-c2cc(=O)[nH][nH]2)c1` [Compound 26, 5-(5-butyl-2-(4-methoxyphenyl)pyridin-3-yl)-1,2-dihydro-3H-pyrazol-3-one]: over 2 µM; for `CCCCc1cnc(-c2ccc(OC)cc2)c(-c2ccc3c(c2)CNC3=O)c1` [Compound 27, 5-(5-butyl-2-(4-methoxyphenyl)pyridin-3-yl)isoindolin-1-one]: 0.5 to 2 µM; for `CCCCc1nc(-c2ccc(OC)cc2)c(N2CCC(C(=O)O)CC2)o1` [Compound 28, 1-(2-butyl-4-(4-methoxyphenyl)oxazol-5-yl)piperidine-4-carboxylic acid]: 0.5 to 2 µM. The same measure for `CCCCc1cnc(-c2ccc(OC)cc2)c(-c2cn(CC(=O)O)nn2)c1` [Compound 29, 2-(4-(5-butyl-2-(4-methoxyphenyl)pyridin-3-yl)-1H-1,2,3-triazol-1-yl)acetic acid]: under 0.5 µM. The same measure for `COc1ccc(-c2ncc(CCC(F)(F)C(F)(F)F)nc2N2CCC(C(=O)O)CC2)cc1` [Compound 30, 1-(3-(4-methoxyphenyl)-6-(3,3,4,4,4-pentafluorobutyl)pyrazin-2-yl)piperidine-4-carboxylic acid]: under 0.5 µM; for `COc1ccc(-c2ncc(CCCC(F)(F)F)nc2N2CCC(C(=O)O)CC2)cc1` [Compound 31, 1-(3-(4-methoxyphenyl)-6-(4,4,4-trifluorobutyl)pyrazin-2-yl)piperidine-4-carboxylic acid]: under 0.5 µM. Consider `COc1ccc(-c2ncc(COCC(F)(F)F)nc2N2CCC(C(=O)O)CC2)cc1` [Compound 32, 1-(3-(4-methoxyphenyl)-6-((2,2,2-trifluoroethoxy)methyl)pyrazin-2-yl)piperidine-4-carboxylic acid], for which the IC50 is over 2 µM.

With `COCCOc1ccc(-c2ncc(COCC(F)(F)F)nc2N2CCC(C(=O)O)CC2)cc1` [Compound 33, 1-(3-(4-(2-methoxyethoxy)phenyl)-6-((2,2,2-trifluoroethoxy)methyl)pyrazin-2-yl)piperidine-4-carboxylic acid], the IC50 lay within 0.5 to 2 µM. The same measure for `COCCOc1ccc(-c2ncc(CCCC(F)(F)F)nc2N2CCC(C(=O)O)CC2)cc1` [Compound 34, 1-(3-(4-(2-methoxyethoxy)phenyl)-6-(4,4,4-trifluorobutyl)pyrazin-2-yl)piperidine-4-carboxylic acid]: 0.5 to 2 µM; for `CCCCc1cnc(-c2ccc(OC)cc2)c(-c2ccc3c(c2)COC3=O)n1` [Compound 35, 5-(6-butyl-3-(4-methoxyphenyl)pyrazin-2-yl)isobenzofuran-1(3H)-one]: 0.5 to 2 µM; for `CCCCc1cnc(-c2ccc(OC)cc2)c(N2CC3(CC(C(=O)O)C3)C2)n1` [Compound 36, 2-(6-butyl-3-(4-methoxyphenyl)pyrazin-2-yl)-2-azaspiro[3.3]heptane-6-carboxylic acid]: 0.5 to 2 µM.

For the molecule `CCCCc1cnc(-c2ccc(OCCOC)c(F)c2)c(N2CCC(C(=O)O)CC2)n1` [Compound 37, 1-(6-butyl-3-(3-fluoro-4-(2-methoxyethoxy)phenyl)pyrazin-2-yl)piperidine-4-carboxylic acid], the concentration for half-maximal inhibition (IC50) was under 0.5 µM.

On to `CCCCc1cnc(-c2cc(F)c(OCCOC)c(F)c2)c(N2CCC(C(=O)O)CC2)n1` [Compound 38, 1-(6-butyl-3-(3,5-difluoro-4-(2-methoxyethoxy)phenyl)pyrazin-2-yl)piperidine-4-carboxylic acid], for which the IC50 lay within 0.5 to 2 µM.
